In patent US6358885B1, “Substituted phenylheterocyclic herbicides” (Mississippi State University, priority 1992, dated 2002):

Columns and labels:
[1] = tested on: velvetleaf; experiment: Test C preemergence/postemergence greenhouse plant response rating 0 to 100; type: in vivo, Abutilon theophrasti; conditions: for Plant response rating, Velvetleaf: 125 g/ha, 0 to 100 scale
Summary of the method: (§1)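 Compounds in non-phytotoxic solvent went onto sandy loam before emergence (seeded one day earlier) or onto plants at the one-to-four leaf stage. Duck salad was treated via flood water (~2.5 cm, maintained) over silt loam.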

[2] = tested on: sugar beet; experiment: Test B preemergence/postemergence greenhouse plant response rating 0 to 10; type: in vivo, Beta vulgaris; conditions: for Plant response rating, Sugar beet: 0 to 10 scale
Summary of the method: (§2)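 Postemergence treatment of plants two to eighteen cm tall ran alongside preemergence treatment of planted seed, each using compound in a non-phytotoxic solvent.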

[3] = tested on: chickweed; experiment: as above; type: in vivo, Stellaria media; conditions: for Plant response rating, Chickweed: 0 to 10 scale
Summary of the method: as §2

[4] = tested on: lambsquarters; experiment: Test C preemergence/postemergence greenhouse plant response rating 0 to 100; type: in vivo, Chenopodium album; conditions: for Plant response rating Lambsquarters: 125 g/ha, 0 to 100 scale
Summary of the method: as §1

[5] = tested on: velvetleaf; experiment: Test B preemergence/postemergence greenhouse plant response rating 0 to 10; type: in vivo, Abutilon theophrasti; conditions: for Plant response rating, Velvetleaf: 0 to 10 scale
Summary of the method: as §2

[6] = tested on: corn; experiment: as above; type: in vivo, Zea mays; conditions: for Plant response rating, Corn: 0 to 10 scale
Summary of the method: as §2

[7] = tested on: morningglory; experiment: Test C preemergence/postemergence greenhouse plant response rating 0 to 100; type: in vivo, Ipomoea hederacea; conditions: for Plant response rating, Morningglory: 125 g/ha, 0 to 100 scale
Summary of the method: as §1

[8] = tested on: crabgrass; experiment: as above; type: in vivo, Digitaria sanguinalis; conditions: for Plant response rating, Crabgrass: 125 g/ha, 0 to 100 scale
Summary of the method: as §1

[9] = tested on: corn; experiment: as above; type: in vivo, Zea mays; conditions: for Plant response rating, Corn: 125 g/ha, 0 to 100 scale
Summary of the method: as §1

[10] = tested on: morningglory; experiment: Test B preemergence/postemergence greenhouse plant response rating 0 to 10; type: in vivo, Ipomoea hederacea; conditions: for Plant response rating, Morningglory: 0 to 10 scale
Summary of the method: as §2

[11] = tested on: wheat; experiment: Test C preemergence/postemergence greenhouse plant response rating 0 to 100; type: in vivo, Triticum aestivum; conditions: for Plant response rating, Wheat: 125 g/ha, 0 to 100 scale
Summary of the method: as §1

[12] = tested on: soybean; experiment: Test B preemergence/postemergence greenhouse plant response rating 0 to 10; type: in vivo, Glycine max; conditions: for Plant response rating, Soybean: 0 to 10 scale
Summary of the method: as §2

COCOc1cc(-c2nn3c(c2Cl)CCCC3)c(F)cc1Cl [Compound 58]
85: Plant response rating (0 to 100), Lambsquarters ([4]; Rate 8 g/ha, POSTEMERGENCE)
7: Plant response rating, Soybean ([12]; POSTEMERGENCE, Rate 50 g/ha)
4: Plant response rating (0 to 10 scale), Corn ([6]; PREEMERGENCE, Rate 200 g/ha) | Plant response rating, Morningglory ([10]; PREEMERGENCE, Rate 50 g/ha) | Plant response rating (0 to 10 scale), Morningglory ([10]; PREEMERGENCE, Rate 200 g/ha)
100: Plant response rating, Velvetleaf ([1]; POSTEMERGENCE) | Plant response rating, Velvetleaf ([1]; PREEMERGENCE) | Plant response rating (0 to 100), Velvetleaf ([1]; Rate 31 g/ha, PREEMERGENCE) | Plant response rating Lambsquarters ([4]; POSTEMERGENCE) | Plant response rating Lambsquarters ([4]; PREEMERGENCE) | Plant response rating (0 to 100), Lambsquarters ([4]; Rate 8 g/ha, PREEMERGENCE) | Plant response rating (0 to 100), Lambsquarters ([4]; Rate 31 g/ha, POSTEMERGENCE) | Plant response rating (0 to 100), Lambsquarters ([4]; Rate 31 g/ha, PREEMERGENCE) | Plant response rating, Morningglory ([7]; POSTEMERGENCE) | Plant response rating, Crabgrass ([8]; PREEMERGENCE)
80: Plant response rating (0 to 100), Velvetleaf ([1]; Rate 31 g/ha, POSTEMERGENCE)
9: Plant response rating, Sugar beet ([2]; PREEMERGENCE, Rate 50 g/ha) | Plant response rating, Chickweed ([3]; POSTEMERGENCE, Rate 50 g/ha) | Plant response rating, Velvetleaf ([5]; POSTEMERGENCE, Rate 50 g/ha) | Plant response rating, Morningglory ([10]; POSTEMERGENCE, Rate 50 g/ha) | Plant response rating, Soybean ([12]; Rate 200 g/ha, POSTEMERGENCE)
10: Plant response rating, Sugar beet ([2]; POSTEMERGENCE, Rate 50 g/ha) | Plant response rating (0 to 10 scale), Sugar beet ([2]; PREEMERGENCE, Rate 200 g/ha) | Plant response rating, Sugar beet ([2]; Rate 200 g/ha, POSTEMERGENCE) | Plant response rating, Chickweed ([3]; PREEMERGENCE, Rate 50 g/ha) | Plant response rating (0 to 10 scale), Chickweed ([3]; PREEMERGENCE, Rate 200 g/ha) | Plant response rating, Chickweed ([3]; Rate 200 g/ha, POSTEMERGENCE) | Plant response rating, Velvetleaf ([5]; PREEMERGENCE, Rate 50 g/ha) | Plant response rating (0 to 10 scale), Velvetleaf ([5]; PREEMERGENCE, Rate 200 g/ha) | Plant response rating, Velvetleaf ([5]; Rate 200 g/ha, POSTEMERGENCE) | Plant response rating, Morningglory ([10]; Rate 200 g/ha, POSTEMERGENCE) | Plant response rating (0 to 100), Wheat ([11]; Rate 31 g/ha, PREEMERGENCE)
65: Plant response rating, Corn ([9]; POSTEMERGENCE)
50: Plant response rating (0 to 100), Lambsquarters ([4]; POSTEMERGENCE, Rate 2 g/ha) | Plant response rating (0 to 100), Morningglory ([7]; POSTEMERGENCE, Rate 2 g/ha) | Plant response rating (0 to 100), Crabgrass ([8]; Rate 31 g/ha, PREEMERGENCE) | Plant response rating (0 to 100), Corn ([9]; Rate 31 g/ha, POSTEMERGENCE) | Plant response rating (0 to 100), Wheat ([11]; Rate 31 g/ha, POSTEMERGENCE)
30: Plant response rating, Morningglory ([7]; PREEMERGENCE) | Plant response rating (0 to 100), Crabgrass ([8]; Rate 8 g/ha, POSTEMERGENCE) | Plant response rating, Corn ([9]; PREEMERGENCE) | Plant response rating (0 to 100), Wheat ([11]; POSTEMERGENCE, Rate 2 g/ha) | Plant response rating, Wheat ([11]; PREEMERGENCE)
2: Plant response rating, Corn ([6]; PREEMERGENCE, Rate 50 g/ha)
20: Plant response rating (0 to 100), Crabgrass ([8]; POSTEMERGENCE, Rate 2 g/ha)
6: Plant response rating, Corn ([6]; Rate 200 g/ha, POSTEMERGENCE)
0: Plant response rating (0 to 100), Velvetleaf ([1]; PREEMERGENCE, Rate 2 g/ha) | Plant response rating (0 to 100), Lambsquarters ([4]; PREEMERGENCE, Rate 2 g/ha) | Plant response rating (0 to 100), Morningglory ([7]; PREEMERGENCE, Rate 2 g/ha) | Plant response rating (0 to 100), Morningglory ([7]; Rate 8 g/ha, PREEMERGENCE) | Plant response rating (0 to 100), Morningglory ([7]; Rate 31 g/ha, PREEMERGENCE) | Plant response rating (0 to 100), Crabgrass ([8]; PREEMERGENCE, Rate 2 g/ha) | Plant response rating (0 to 100), Crabgrass ([8]; Rate 8 g/ha, PREEMERGENCE) | Plant response rating (0 to 100), Corn ([9]; PREEMERGENCE, Rate 2 g/ha) | Plant response rating (0 to 100), Corn ([9]; Rate 8 g/ha, PREEMERGENCE) | Plant response rating (0 to 100), Corn ([9]; Rate 31 g/ha, PREEMERGENCE) | Plant response rating (0 to 100), Wheat ([11]; PREEMERGENCE, Rate 2 g/ha) | Plant response rating (0 to 100), Wheat ([11]; Rate 8 g/ha, PREEMERGENCE) | Plant response rating, Soybean ([12]; PREEMERGENCE, Rate 50 g/ha) | Plant response rating (0 to 10 scale), Soybean ([12]; PREEMERGENCE, Rate 200 g/ha)
5: Plant response rating, Corn ([6]; POSTEMERGENCE, Rate 50 g/ha)
60: Plant response rating (0 to 100), Crabgrass ([8]; Rate 31 g/ha, POSTEMERGENCE) | Plant response rating, Wheat ([11]; POSTEMERGENCE)
40: Plant response rating (0 to 100), Velvetleaf ([1]; POSTEMERGENCE, Rate 2 g/ha) | Plant response rating (0 to 100), Velvetleaf ([1]; Rate 8 g/ha, PREEMERGENCE) | Plant response rating (0 to 100), Corn ([9]; POSTEMERGENCE, Rate 2 g/ha) | Plant response rating (0 to 100), Corn ([9]; Rate 8 g/ha, POSTEMERGENCE) | Plant response rating (0 to 100), Wheat ([11]; Rate 8 g/ha, POSTEMERGENCE)
75: Plant response rating (0 to 100), Velvetleaf ([1]; Rate 8 g/ha, POSTEMERGENCE)
90: Plant response rating (0 to 100), Morningglory ([7]; Rate 31 g/ha, POSTEMERGENCE)
70: Plant response rating (0 to 100), Morningglory ([7]; Rate 8 g/ha, POSTEMERGENCE) | Plant response rating, Crabgrass ([8]; POSTEMERGENCE)
